“And” between values parts separate entries of the source, which are not always exact repeats. Equal values may be shown once. Toxic doses and inconclusive results are not listed. The calls were made as follows: active = survival T/C of 150% or more; inactive = T/C below 125% in these data.
Tested on: P388 leukemia ip, CD2F1 mice, survival T/C
Test: NCI In Vivo Anticancer Drug Screen. Data for tumor model P388 Leukemia (intraperitoneal) in CD2F1 (CDF1) mice
Settings: endpoint: median survival time, higher = longer survival
How it was run: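 Mice carrying the transplanted tumor received test compound or vehicle. Survival was recorded in each group, and the value is the treated-group measurement divided by that of the vehicle-treated control group.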

[1] = dose: 100.0 mg/kg/injection, schedule: Q01DX009 (ip), vehicle: saline with Tween-80
[2] = dose: 25.0 mg/kg/injection, schedule: Q04DX002 (ip), vehicle: saline with Tween-80
[3] = dose: 50.0 mg/kg/injection, schedule: Q04DX002 (ip), vehicle: saline with Tween-80
[4] = dose: 100.0 mg/kg/injection, schedule: Q04DX002 (ip), vehicle: saline with Tween-80
[5] = dose: 6.25 mg/kg/injection, schedule: Q01DX009 (ip), vehicle: Klucel (hydroxypropylcellulose) (HPC)
[6] = dose: 12.5 mg/kg/injection, schedule: Q01DX009 (ip), vehicle: Klucel (hydroxypropylcellulose) (HPC)
[7] = dose: 50.0 mg/kg/injection, schedule: Q01DX005 (ip), vehicle: saline with Tween-80
[8] = dose: 60.0 mg/kg/injection, schedule: Q01DX005 (ip), vehicle: saline with Tween-80
[9] = dose: 120.0 mg/kg/injection, schedule: Q01DX005 (ip), vehicle: saline with Tween-80
[10] = dose: 240.0 mg/kg/injection, schedule: Q01DX005 (ip), vehicle: saline with Tween-80
[11] = dose: 15.0 mg/kg/injection, schedule: Q01DX005 (ip), vehicle: saline with Tween-80
[12] = dose: 100.0 mg/kg/injection, schedule: Q01DX009 (ip), vehicle: Klucel (hydroxypropylcellulose) (HPC)
[13] = dose: 200.0 mg/kg/injection, schedule: Q01DX009 (ip), vehicle: Klucel (hydroxypropylcellulose) (HPC)
[14] = dose: 50.0 mg/kg/injection, schedule: Q01DX009 (ip), vehicle: saline
[15] = dose: 100.0 mg/kg/injection, schedule: Q01DX009 (ip), vehicle: saline

Measured: T/C

COC(=O)CC1(C(=O)OC)C2=C(CCCC2)N2CCCC21 (stereo not drawn)
inactive: dose: 21.88 mg/kg/injection, schedule: Q01DX009 (ip), vehicle: Klucel (hydroxypropylcellulose) (HPC) 102 % of control | dose: 43.75 mg/kg/injection, schedule: Q01DX009 (ip), vehicle: Klucel (hydroxypropylcellulose) (HPC) 102 % of control | dose: 87.5 mg/kg/injection, schedule: Q01DX009 (ip), vehicle: Klucel (hydroxypropylcellulose) (HPC) 100 % of control | dose: 175.0 mg/kg/injection, schedule: Q01DX009 (ip), vehicle: Klucel (hydroxypropylcellulose) (HPC) 100 % of control

Cc1ccc(C(=O)[O][Hg][CH2]C2COC([CH2][Hg][O]C(=O)c3ccc(C)cc3)CO2)cc1 (stereo not drawn)
inactive: dose: 25.0 mg/kg/injection, schedule: Q01DX009 (ip), vehicle: saline with Tween-80 116 % of control | dose: 50.0 mg/kg/injection, schedule: Q01DX009 (ip), vehicle: saline with Tween-80 113 % of control | [1] 100 % of control

CC[N+](C)(CC)c1ccccc1
inactive: dose: 25.0 mg/kg/injection, schedule: Q04DX002 (ip), vehicle: saline 103 % of control | dose: 50.0 mg/kg/injection, schedule: Q04DX002 (ip), vehicle: saline 104 % of control

Cc1ccc(S(=O)(=O)N(N)CCC#N)cc1
inactive: dose: 50.0 mg/kg/injection, schedule: Q01DX005 (ip), vehicle: Klucel (hydroxypropylcellulose) (HPC) 94 % of control | dose: 100.0 mg/kg/injection, schedule: Q01DX005 (ip), vehicle: Klucel (hydroxypropylcellulose) (HPC) 97 % of control | dose: 200.0 mg/kg/injection, schedule: Q01DX005 (ip), vehicle: Klucel (hydroxypropylcellulose) (HPC) 96 % of control

CC1(CCOCc2ccccc2)NC(=O)NC1=O (stereo not drawn)
inactive: [1] 90 % of control | dose: 200.0 mg/kg/injection, schedule: Q01DX009 (ip), vehicle: saline with Tween-80 100 % of control | dose: 400.0 mg/kg/injection, schedule: Q01DX009 (ip), vehicle: saline with Tween-80 100 % of control

Cc1nc(C)n2cnnc2c1C
inactive: dose: 100.0 mg/kg/injection, schedule: Q04DX003 (ip), vehicle: saline 96 % of control | dose: 200.0 mg/kg/injection, schedule: Q04DX003 (ip), vehicle: saline 95 % of control

CCOC(=O)c1ccc(N=C(C2=C(O)c3ccccc3C2=O)c2ccccc2)cc1
inactive: [2] 92 % of control | [3] 101 % of control | [4] 95 % of control

CC(C)(C)C1=CC(=C/C=C/c2cc(C(C)(C)C)[o+]c(C(C)(C)C)c2)C=C(C(C)(C)C)O1
inactive: dose: 1.56 mg/kg/injection, schedule: Q01DX009 (ip), vehicle: Klucel (hydroxypropylcellulose) (HPC) 105 % of control | dose: 3.12 mg/kg/injection, schedule: Q01DX009 (ip), vehicle: Klucel (hydroxypropylcellulose) (HPC) 96 % of control | [5] 109 % of control and 111 % of control | [6] 108 % of control and 116 % of control | dose: 25.0 mg/kg/injection, schedule: Q01DX009 (ip), vehicle: Klucel (hydroxypropylcellulose) (HPC) 109 % of control

CC1=CC(=O)C=C/C1=N/S(=O)(=O)c1ccccc1
inactive: dose: 12.5 mg/kg/injection, schedule: Q01DX001 (ip), vehicle: saline with Tween-80 100 % of control | dose: 25.0 mg/kg/injection, schedule: Q01DX001 (ip), vehicle: saline with Tween-80 90 % of control | dose: 50.0 mg/kg/injection, schedule: Q01DX001 (ip), vehicle: saline with Tween-80 100 % of control

C[N+]1(Cc2ccccc2)C2CCC1C(CCl)C(O)C2 (stereo not drawn)
inactive: dose: 3.12 mg/kg/injection, schedule: Q01DX009 (ip), vehicle: saline 111 % of control | dose: 6.25 mg/kg/injection, schedule: Q01DX009 (ip), vehicle: saline 115 % of control | dose: 12.5 mg/kg/injection, schedule: Q01DX009 (ip), vehicle: saline 101 % of control and 104 % of control

CNCCCN1c2ccccc2CCc2ccccc21
inactive: [7] 103 % of control

Cc1ccc(S(=O)(=O)N/N=C2/C(=O)N(c3ccc(Cl)cc3C)C(=O)C(=O)C2c2nc3ccccc3s2)cc1 (stereo not drawn)
inactive: [8] 98 % of control | [9] 103 % of control | [10] 104 % of control

CCOP(=O)(OCC)c1nc(Cl)nc(Cl)c1SC(F)(F)F
inactive: dose: 3.75 mg/kg/injection, schedule: Q01DX005 (ip), vehicle: saline with Tween-80 113 % of control | dose: 7.5 mg/kg/injection, schedule: Q01DX005 (ip), vehicle: saline with Tween-80 104 % of control | [11] 100 % of control

CN(C)C(=S)S(=O)(=O)CCCCCCS(=O)(=O)C(=S)N(C)C
inactive: dose: 50.0 mg/kg/injection, schedule: Q04DX002 (ip), vehicle: Klucel (hydroxypropylcellulose) (HPC) 102 % of control and 103 % of control | dose: 100.0 mg/kg/injection, schedule: Q04DX002 (ip), vehicle: Klucel (hydroxypropylcellulose) (HPC) 100 % of control and 110 % of control and 114 % of control | dose: 200.0 mg/kg/injection, schedule: Q04DX002 (ip), vehicle: Klucel (hydroxypropylcellulose) (HPC) 107 % of control and 111 % of control and 123 % of control | dose: 300.0 mg/kg/injection, schedule: Q04DX002 (ip), vehicle: Klucel (hydroxypropylcellulose) (HPC) 107 % of control and 109 % of control

O=C(O)c1nc2ccccc2c2ncccc12
inactive: [2] 101 % of control | [3] 92 % of control | [4] 94 % of control

COC1/C=C/OC2(C)Oc3c(C)c(O)c4c(c3C2=O)C(=O)C([N+](=O)[O-])=C(NC(=O)C(C)=C/C=C\C(C)C(O)C(C)C(O)C(C)C(OC(C)=O)C1C)C4=O (stereo not drawn)
inactive: [12] 90 % of control | [13] 98 % of control

CN1CCCN(C)C1c1ccccc1
inactive: dose: 25.0 mg/kg/injection, schedule: Q01DX009 (ip), vehicle: saline 105 % of control | [14] 110 % of control | [15] 95 % of control

O=Nc1c[nH]c(=O)[nH]c1=O
inactive: [14] 97 % of control | [15] 98 % of control | dose: 200.0 mg/kg/injection, schedule: Q01DX009 (ip), vehicle: saline 100 % of control

S=C1CCNCC1
inactive: dose: 3.13 mg/kg/injection, schedule: Q04DX003 (ip), vehicle: saline 100 % of control | dose: 6.25 mg/kg/injection, schedule: Q04DX003 (ip), vehicle: saline 104 % of control | dose: 12.5 mg/kg/injection, schedule: Q04DX003 (ip), vehicle: saline 100 % of control | dose: 25.0 mg/kg/injection, schedule: Q04DX003 (ip), vehicle: saline 100 % of control | dose: 50.0 mg/kg/injection, schedule: Q04DX003 (ip), vehicle: saline 90 % of control

O=C(Nc1ccccc1F)N(CCO)C1CCCCC1
inactive: [8] 93 % of control | [9] 93 % of control | [10] 98 % of control

O=C(O)CNC(=O)NC(Cc1ccccc1)C(=O)O (stereo not drawn)
inactive: [7] 105 % of control | dose: 100.0 mg/kg/injection, schedule: Q01DX005 (ip), vehicle: saline with Tween-80 105 % of control | dose: 200.0 mg/kg/injection, schedule: Q01DX005 (ip), vehicle: saline with Tween-80 93 % of control

NCC1OC(n2cnc3c(N)ncnc32)C(O)C1O (stereo not drawn)
inactive: dose: 6.25 mg/kg/injection, schedule: Q01DX009 (ip), vehicle: water 100 % of control | dose: 12.5 mg/kg/injection, schedule: Q01DX009 (ip), vehicle: water 100 % of control | dose: 25.0 mg/kg/injection, schedule: Q01DX009 (ip), vehicle: water 98 % of control | dose: 50.0 mg/kg/injection, schedule: Q01DX009 (ip), vehicle: water 107 % of control | dose: 100.0 mg/kg/injection, schedule: Q01DX009 (ip), vehicle: water 117 % of control

Cc1c(C)c2ccc(N(C)C)cc2[nH]c1=O
inactive: dose: 50.0 mg/kg/injection, schedule: Q01DX009 (ip), vehicle: Klucel (hydroxypropylcellulose) (HPC) 113 % of control | [12] 106 % of control | [13] 106 % of control

CNC(=O)OCc1c(COC(=O)NC)c(-c2ccsc2)n2c1CCC2
inactive: [11] 118 % of control | [8] 119 % of control and 124 % of control

[Tl][S][Tl]
inactive: [5] 102 % of control | [6] 100 % of control

CCOC(=O)NNC(=O)Nc1ccc(O[Si](C)(C)C)cc1
inactive: [8] 109 % of control | [9] 102 % of control | [10] 100 % of control

CC1(O)Cc2ccc3c(c2C(=O)C1O)C(=O)c1cccc(O)c1C3=O (stereo not drawn)
inactive: dose: 3.12 mg/kg/injection, schedule: Q01DX005 (ip), vehicle: distilled water + Tween-80 + alcohol 98 % of control | dose: 6.25 mg/kg/injection, schedule: Q01DX005 (ip), vehicle: distilled water + Tween-80 + alcohol 100 % of control | dose: 12.5 mg/kg/injection, schedule: Q01DX005 (ip), vehicle: distilled water + Tween-80 + alcohol 100 % of control | dose: 25.0 mg/kg/injection, schedule: Q01DX005 (ip), vehicle: distilled water + Tween-80 + alcohol 100 % of control
